Test results taken from the supplement of paper PMC10307832.

Tests used:
Experiment in all cases: relative viability (nuclei count vs DMSO), 5 days (fraction); higher = more cells survive
CAL-12T = system: CAL-12T
Outline: (§1)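 Lung cancer cell lines, seeded in 1536-well plates, were treated the following day by pin tool with a single drug or with five library-drug doses (not always all listed) in √10 steps on top of a fixed anchor-drug dose. Cells were fixed and nuclei stained in one step after 5 days, and nuclei were counted. Relative viability is the nuclei count for treated wells divided by that for vehicle wells, reported as medians of duplicate plates.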

EKVX = system: EKVX
Outline: as §1

H3255 = system: H3255
Outline: as §1

HCC-15 = system: HCC-15
Outline: as §1

HCC-827 = system: HCC-827
Outline: as §1

LCLC-97TM1 = system: LCLC-97TM1
Outline: as §1

NCI-H1355 = system: NCI-H1355
Outline: as §1

NCI-H1563 = system: NCI-H1563
Outline: as §1

NCI-H1650 = system: NCI-H1650
Outline: as §1

NCI-H1734 = system: NCI-H1734
Outline: as §1

SMILES: Nc1ccn([C@@H]2O[C@H](CO)[C@@H](O)[C@@H]2O)c(=O)n1 [Cytarabine] + CC(C)C[C@H](NC(=O)[C@H](Cc1ccccc1)NC(=O)c1cnccn1)B(O)O [Bortezomib] (partner 0.002 µM)
- relative viability (CAL-12T; first compound 0.005 µM): 0.933
- relative viability (CAL-12T; first compound 0.01581 µM): 0.715
- relative viability (CAL-12T; first compound 0.05 µM): 0.948
- relative viability (CAL-12T; first compound 0.1581 µM): 0.379
- relative viability (CAL-12T; first compound 0.5 µM): 0.267
- relative viability (EKVX; first compound 0.005 µM): 1.22
- relative viability (EKVX; first compound 0.01581 µM): 0.947
- relative viability (EKVX; first compound 0.05 µM): 0.801
- relative viability (EKVX; first compound 0.1581 µM): 0.361
- relative viability (EKVX; first compound 0.5 µM): 0.178
- relative viability (H3255; first compound 0.005 µM): 0.745
- relative viability (H3255; first compound 0.01581 µM): 0.797
- relative viability (H3255; first compound 0.05 µM): 0.575
- relative viability (H3255; first compound 0.1581 µM): 0.517
- relative viability (H3255; first compound 0.5 µM): 0.468
- relative viability (HCC-15; first compound 0.005 µM): 0.795
- relative viability (HCC-15; first compound 0.01581 µM): 1.03
- relative viability (HCC-15; first compound 0.05 µM): 1.16
- relative viability (HCC-15; first compound 0.1581 µM): 0.883
- relative viability (HCC-15; first compound 0.5 µM): 0.668
- relative viability (HCC-827; first compound 0.005 µM): 0.996
- relative viability (HCC-827; first compound 0.01581 µM): 0.674
- relative viability (HCC-827; first compound 0.05 µM): 0.474
- relative viability (HCC-827; first compound 0.1581 µM): 0.459
- relative viability (HCC-827; first compound 0.5 µM): 0.329
- relative viability (LCLC-97TM1; first compound 0.005 µM): 0.277
- relative viability (LCLC-97TM1; first compound 0.01581 µM): 0.349
- relative viability (LCLC-97TM1; first compound 0.05 µM): 0.132
- relative viability (LCLC-97TM1; first compound 0.1581 µM): 0.084
- relative viability (LCLC-97TM1; first compound 0.5 µM): 0.0888
- relative viability (NCI-H1355; first compound 0.005 µM): 1.02
- relative viability (NCI-H1355; first compound 0.01581 µM): 1.18
- relative viability (NCI-H1355; first compound 0.05 µM): 0.927
- relative viability (NCI-H1355; first compound 0.1581 µM): 0.644
- relative viability (NCI-H1355; first compound 0.5 µM): 0.389
- relative viability (NCI-H1563; first compound 0.005 µM): 0.878
- relative viability (NCI-H1563; first compound 0.01581 µM): 0.928
- relative viability (NCI-H1563; first compound 0.05 µM): 0.779
- relative viability (NCI-H1563; first compound 0.1581 µM): 0.835
- relative viability (NCI-H1563; first compound 0.5 µM): 0.592
- relative viability (NCI-H1650; first compound 0.005 µM): 0.215
- relative viability (NCI-H1650; first compound 0.01581 µM): 0.166
- relative viability (NCI-H1650; first compound 0.05 µM): 0.172
- relative viability (NCI-H1650; first compound 0.1581 µM): 0.161
- relative viability (NCI-H1650; first compound 0.5 µM): 0.154
- relative viability (NCI-H1734; first compound 0.005 µM): 0.515
- relative viability (NCI-H1734; first compound 0.01581 µM): 0.377
- relative viability (NCI-H1734; first compound 0.05 µM): 0.347
- relative viability (NCI-H1734; first compound 0.1581 µM): 0.149
- relative viability (NCI-H1734; first compound 0.5 µM): 0.159
